The target of test [1] is T1, Glycylpeptide N-tetradecanoyltransferase 1 (Homo sapiens) (UniProt P30419).
T1 sequence (whole entry): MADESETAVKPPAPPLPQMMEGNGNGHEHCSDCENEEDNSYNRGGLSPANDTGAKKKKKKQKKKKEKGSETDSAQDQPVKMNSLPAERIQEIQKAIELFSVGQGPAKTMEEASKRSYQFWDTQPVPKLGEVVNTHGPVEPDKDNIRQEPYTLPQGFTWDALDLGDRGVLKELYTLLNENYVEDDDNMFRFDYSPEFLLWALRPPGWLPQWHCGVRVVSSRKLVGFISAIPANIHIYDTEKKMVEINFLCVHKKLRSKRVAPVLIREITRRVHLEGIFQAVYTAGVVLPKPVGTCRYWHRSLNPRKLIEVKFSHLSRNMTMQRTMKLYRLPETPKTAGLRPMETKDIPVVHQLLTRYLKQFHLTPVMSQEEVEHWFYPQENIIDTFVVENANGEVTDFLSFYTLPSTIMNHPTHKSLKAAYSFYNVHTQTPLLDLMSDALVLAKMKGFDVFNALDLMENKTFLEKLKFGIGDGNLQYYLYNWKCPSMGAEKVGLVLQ
In words: In vitro production of Acylpeptide by human N-myristoyltransferase (NMT) assay.

The species entered for the next test is Homo sapiens. In words: Tested in vitro for the production of acyl-CoA of compound by Acyl-CoA synthetase in human.
Test [2] deals with CCRF-CEM. In words: Tested for cytotoxicity against HIV-1 uninfected CEM cells. Format: functional. The settings on record: Homo sapiens, read-out: TD50 (the source's name).
In test [3] the test system is CCRF-CEM. The test can be described thus: Tested for the antiviral activity against HIV-1 infected CEM cells. Format: functional. The settings on record: Homo sapiens, read-out: ID50 (the source's name).
The next test concerns Pseudomonas. In words: Tested in vitro for the production of acyl-CoA by Acyl-CoA synthetase in Pseudomonas.
Test [4] concerns the target Glycylpeptide N-tetradecanoyltransferase (Saccharomyces cerevisiae) (UniProt P14743). In words: Tested in vitro for the production of Acylpeptide by yeast N-myristoyltransferase (NMT) assay.
The subject of test [5] is CCRF-CEM. The test can be described thus: Tested for the antiviral activity against HIV-1 infected CEM cells; Value ranges from 1-5. Type of test: functional. The following applies: Homo sapiens, read-out: ID50 (the source's name).
The test system of test [6] is CCRF-CEM. In words: Tested for cytotoxicity against HIV-1 uninfected CEM cells; Value ranges from 80-190. Type of test: functional. The settings on record: Homo sapiens, read-out: TD50 (the source's name).
The test system of test [7] is CCRF-CEM. In words: Tested for the antiviral activity against HIV-1 infected CEM cells; Value ranges from 9-20. The settings on record: Homo sapiens, read-out: ID50 (the source's name). Format: functional.
Test [8] deals with CCRF-CEM. The test can be described thus: Tested for the antiviral activity against HIV-1 infected CEM cells; NA means not active. Type of test: functional, cell-based. The settings on record: Homo sapiens.

The record followed here is ChEMBL document CHEMBL1126994, “Synthesis of myristic acid analogs with anti-HIV activity that may be resistant to metabolic processing by -oxidation” (1993).

Activity calls are given as the source filed them. The rule behind the calls is not given here.

Sequence of Glycylpeptide N-tetradecanoyltransferase (Saccharomyces cerevisiae) (P14743 whole entry, looked up): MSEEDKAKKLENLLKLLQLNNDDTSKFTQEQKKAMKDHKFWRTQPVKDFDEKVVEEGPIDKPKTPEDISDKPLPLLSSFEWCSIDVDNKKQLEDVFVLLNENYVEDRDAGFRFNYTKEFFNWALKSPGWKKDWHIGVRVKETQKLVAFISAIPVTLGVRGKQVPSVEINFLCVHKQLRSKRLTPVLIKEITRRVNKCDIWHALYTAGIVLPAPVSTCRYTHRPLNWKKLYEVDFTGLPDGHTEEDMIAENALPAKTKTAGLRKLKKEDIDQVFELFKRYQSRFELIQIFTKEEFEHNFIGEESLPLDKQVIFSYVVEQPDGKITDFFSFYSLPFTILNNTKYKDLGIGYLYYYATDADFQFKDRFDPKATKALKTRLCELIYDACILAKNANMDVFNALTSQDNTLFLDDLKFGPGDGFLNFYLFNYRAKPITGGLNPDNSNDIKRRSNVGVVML

Take `COCCCCCCCCC/C=C/C(=O)O`: the Myristoylpeptide in test [1] is 5%; in test [4], 7%. In addition, the values for the MyristoylCoA in the test filed under Homo sapiens and with Pseudomonas were 12% and 78%, respectively. Besides, the CC50 with CCRF-CEM [2] is over 80 µM. In addition, the IC50 with CCRF-CEM [3] was 5 µM.

Take `COCCCCCCCCCC(F)CC(=O)O` (centres undefined): the Myristoylpeptide in test [1] was 5%; in test [4] it was under 5%. For the same molecule, the MyristoylCoA in the test listed under Homo sapiens is under 5%; in the test on Pseudomonas it was 94%. Moreover, in the test with CCRF-CEM [2], the CC50 is 300 µM. The IC50 in the test on CCRF-CEM [5] came to 1 µM.

Take `COCCCCCCCCCCCCC(=O)O`: the Myristoylpeptide worked out at 84% in test [1] and 109% in test [4]. Further, the MyristoylCoA was 75% in the test listed under Homo sapiens and 175% in the test on Pseudomonas. In addition, in the test with CCRF-CEM [5], the IC50 is 1 µM. The CC50 with CCRF-CEM [6] is 80 µM.

As for `COCCCCCCCCCC(O)CC(=O)O` (centres undefined), the Myristoylpeptide in test [1] and in [4] was under 5% in each case. Also, the MyristoylCoA in the test filed under Homo sapiens is under 5%; with Pseudomonas it was 114%. In addition, the CC50 with CCRF-CEM [2] was determined as 280 µM. Moreover, in the test with CCRF-CEM [7], the IC50 worked out at 9 µM.

Consider `COCCCCCCCCC(O)CCC(=O)O` (centres undefined), for which the Myristoylpeptide was under 5% in test [1] and 107% in test [4]. The CC50 with CCRF-CEM [2] is over 400 µM. Besides, in the test on CCRF-CEM [3], the IC50 stood at 77 µM.

With `COCCCCCCCCCCC(F)C(=O)O` (centres undefined), the Myristoylpeptide was under 5% in test [1] and 14% in test [4]. Also, the MyristoylCoA amounted to 26% in the test listed under Homo sapiens and 14% in the test with Pseudomonas. For the same molecule, the ID50 entry with CCRF-CEM [8] is “inactive”. The CC50 with CCRF-CEM [2] was over 100 µM.
